Assay results from PubChem BioAssay (NCI).
Several values for one entry are separate records, joined by “and”; a condition that tells them apart may be missing. Equal entries are not always repeated.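 Cultured in 96-well plates, cells were exposed to test compound for 48 hours across five concentrations. GI50 is the concentration that inhibits growth by half. Definition used: TGI = concentration required for complete inhibition of growth.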

System: MDA-MB-468 breast
Assay: NCI anticancer screen, dose series, 48 h

Row | SMILES | GI50 | TGI
1 | O=C(CCc1nnc(-c2c(Cl)cccc2Cl)o1)c1nc2ccccc2[nH]1 | 797 nM | 12200 nM
2 | CC(C)c1ccc2c(N=Nc3ccc(S(N)(=O)=O)cc3)c(O)[nH]c2c1 | 7760 nM | > 25000 nM
3 | COc1cc(-c2cc(/C=C/C(=O)c3ccc4c(c3)OCO4)[nH]n2)cc(OC)c1OC | 1400 nM | 2860 nM
4 | Cn1cc(C2=C(c3c4n(c5ccccc35)CC(CN)C4)C(=O)NC2=O)c2ccccc21 (centres undefined) | 2790 nM | 6170 nM
5 | N/C(=N\c1nc2c(Cl)cc(Cl)cc2s1)C(Cl)(Cl)Cl | 2850 nM | 12300 nM
6 | O=C1Nc2ccccc2C1(c1ccc(O)c(F)c1)c1ccc(O)c(F)c1 | 290 nM | 996 nM
7 | CCOC(=O)c1ccc2c(c1)[n+](=O)c(C(=O)c1ccc3ccccc3c1)c(C(F)(F)F)n2[O-] | 372 nM | 1510 nM
8 | Nc1ccccc1/C=N\Nc1ccccc1 | 79700 nM | > 100000 nM
9 | COC1OCC(OS(=O)(=O)c2ccc(C)cc2)C(OC(=O)c2ccccc2)C1OC(=O)c1ccccc1 (centres undefined) | 2500 nM | > 100000 nM
10 | Fc1ccc(-c2ncn(C3CCNCC3)c2-c2ccnc(Oc3ccccc3)n2)cc1 | 3690 nM | 12200 nM
11 | Cc1ccc(Cl)cc1Nc1nc(C(F)(F)F)ccc1C(=O)N/N=C/c1c(Cl)cccc1Cl | 662 nM | 8470 nM
12 | COc1cc(C(=O)NC2CCN(C)CC2)ccc1Nc1ncc2c(n1)N(C1CCCC1)CC(F)(F)C(=O)N2C | < 10 nM | < 42.7 nM
13 | C=C1C(=O)O[C@H]2[C@H]1CC/C(C=Nc1ccc(C(F)(F)F)cc1N)=C\CC[C@@]1(C)O[C@@H]21 | 3490 nM | 12600 nM
14 | CCOC(=O)C1=C(N)Oc2c(sc3c(C)cccc23)C1c1ccc(Cl)cc1 (centres undefined) | 3110 nM | 13400 nM
15 | O=C1Nc2cc(Cl)ccc2Oc2cc(Oc3ccccc3)ccc21 | 1850 nM | 8880 nM
16 | CCCn1cc(C2=C(c3cn(C)c4ccccc34)C(=O)NC2=O)c2ccccc21 | 429 nM | 11100 nM
17 | O=C(Nc1ncc(Cc2ccccc2)s1)c1ccc2c(c1)OCCO2 | 254 nM | –
18 | CC(C)(C)C(=O)OCOP(=O)(OCOC(=O)C(C)(C)C)C1CCCN(OC(=O)c2ccccc2)C1=O (centres undefined) | 1860 nM | 14100 nM
19 | Nc1ncnc2c1c(-c1cccc(OCc3ccccc3)c1)cn2C1CC(CN2CCCC2)C1 (centres undefined) | 1380 nM | 3140 nM

Row | SMILES | GI50 | TGI
20 | O=C(CSc1nc2ccc([N+](=O)[O-])cc2[nH]1)Nc1cccc(Cl)c1 | 1590 nM | 5890 nM
21 | COc1ccc(-n2c(SCC(=O)Nc3ccc(-c4nc5ccccc5[nH]4)cc3)nc3ccccc3c2=O)cc1 | 1970 nM | 4630 nM
22 | CCOCCc1c(O)nc(SC)[nH]c1=O | > 100000 nM | > 100000 nM
23 | O=C(/C=C/c1ccccn1)c1ccccc1O | 1610 nM | 3100 nM
24 | Fc1ccc(CNc2c3ccccc3nc3ccccc23)cc1 | 1910 nM | 4860 nM
25 | CN(C)c1ccc(/C=C(\C#N)c2cc3ccccc3n2C)cc1 | 69.4 nM | 2110 nM
26 | O=C1[C@H]2Cc3c([nH]c4ccccc34)[C@@H](c3ccc(Br)cc3)N2C(=O)CN1C1CCN(CC2CCCCC2)CC1 | 13200 nM | 27200 nM
27 | COc1ccc(C(=O)Nc2ncc(Cc3ccccc3Cl)s2)cc1 | 353 nM | 33000 nM
28 | CCc1ccc(CCC(=O)Nc2ncc(Cc3cc(Cl)ccc3Cl)s2)o1 | 769 nM | 5970 nM
29 | O=C(CCCCC(=O)N/N=C\c1ccccc1Cl)N/N=C\c1ccccc1Cl | 1830 nM | 49500 nM
30 | COc1ccccc1CNCCCN1C(=O)c2ccc3c4c(ccc(c24)C1=O)C(=O)N(CCCNCCCCNCCCCN)C3=O | 280 nM | 1170 nM
31 | CCCCCCCCCCCC1=NC(C)(C)CN1CCO | 3270 nM | 12800 nM
32 | C#CC[C@@H]1C[C@]2(C)[C@H]3CC[C@@H]4[C@H]5[C@H](C(=C)C)CC[C@]5(C(=O)O)CC[C@@]4(C)[C@]3(C)CC[C@H]2C(C)(C)[C@H]1O | 2210 nM | 5290 nM
33 | C(=N/Nc1ncnc2nc[nH]c12)/c1ccccn1 | 86.8 nM | 441 nM
34 | C=C1C(=O)O[C@H]2[C@H]1CC/C(COC(=O)/C=C\C(=O)NCc1ccc(Cn3c(=O)sn(-c4ccc(OC)cc4)c3=O)cc1)=C\CC[C@@]1(C)O[C@@H]21 | 652 nM | 1520 nM
35 | CS(=O)(=O)N1CCN(Cc2cc3nc(-c4cccc5[nH]ncc45)nc(N4CCOCC4)c3s2)CC1 | 55.3 nM and 123 nM | 467 nM and 985 nM
36 | O=C(c1ccccc1)c1ccc(Cl)c([N+](=O)[O-])c1 | 2160 nM | 6460 nM
37 | COc1ccc(Nc2c3c4c(cccc4[nH]c2=O)C(=O)c2ccccc2-3)cc1 | 23.7 nM | –
38 | CCCN(CCC)c1ccc(C=O)cc1 | 16400 nM | 53900 nM
